Source: patent publication US20240091328A1, “FORMULATIONS AND METHODS FOR MHC-I RESTRICTED EPITOPE IMMUNIZATION” (The Research Foundation for The State University of New York, priority 2021, published 2024)
Structures can show the parent of a compound that is named as a salt.

Legend:
[1] = test system: IFN-γ and TNF-α producing CD8^+ T cells; assay: Intracellular IFN-γ / TNF-α staining of splenocytes after antigen re-stimulation; assay type: in vivo, BALB/c mice; details: mice vaccinated with CPQ and 20 RENCA peptides
Description: For Intracellular staining: 100 μL of 1×10^6 splenocytes were seeded in a flat bottom 96 wells plate and stimulated with 10 μg/mL antigen for 15-18 hours in the cell culture incubator. Then Brefeldin A was added to the plates with a dilution of 1000× for another 5 hours. Cells were transferred to a round bottom 96 wells plate and centrifuged at 1350 rpm for 3 mins, the cell pellets were washed twice and stained with 500× live/dead fixable dye, 200× diluted APC anti-mouse CD8, 200× diluted FITC anti-mouse CD4, 200× diluted PE/Cy7 anti-mouse CD62L and 200× diluted PerCP/Cy5.5 […] 25 min at 4° C. with shaking. Cells were washed twice and fixed and permeabilized by fixation/permeabilization buffer for 20 min at 4° C. Cells were washed twice with perm wash buffer and stained with 200× diluted pacific blue anti-mouse IFN-γ and 200× diluted PE anti-mouse TNF-α for 30 min on ice. Cells were washed twice by perm/wash buffer for flow cytometry.

RENCA cells [2] = assay: Prophylactic vaccine tumor model, subcutaneous RENCA challenge; assay type: in vivo, BALB/c mice; details: single peptide with CoPoP liposome, days 0 and 7, RENCA day 14
Description: Multivalent vaccine was prepared by first incubate all 20 peptides with CPQ and 2HPQ liposome for a hour at room temperature with a mass ratio of 1:4. The binding percentage of peptides was assessed by peptide filtration assay. […] There was no significant change of sizes of liposome before or after binding, which were around 100 nm (FIG. 19B). The polydispersity index of liposomes is smaller than 0.25 (FIG. 19C). Mice were vaccinated with CPQ/peptides on day0 & 7, the injection dose is 50 ng per peptide and lug total peptide per mouse. Mice were then challenged with RENCA cells subcutaneously on day14.
To confirm which peptide was responsible to the anti-tumor efficacy of the vaccine, we admixed single peptide with CoPoP liposome as a vaccine to inject BALB/c mice. These 20 vaccines were injected to 20 groups of BALB/c mice on day 0 & 7, RENCA cells were inoculated on day14.
(§1) Tumor challenge: For the prophylactic vaccine tumor model, mice were vaccinated on day 0 and 7, and challenged on day 14. For testing the long-term protection of vaccine, mice were challenged on day 80. […] Tumor growth was monitored three times a week and tumor sizes were calculated by equation: Tumor volume=length×width^2/2. […] Tumor nodules were counted manually and lung weights were measured.

RENCA cells [3] = assay: Cell lysis by splenocyte effector cells, LDH release, RENCA targets; assay type: cell-based, mouse; details: single peptide vaccine
Description: FIG. 20. […] BALB/c mice were immunized with CPQ/peptide vaccine on day 0 & 7, then inoculated with RENCA cells subcutaneously on day 14. (A) Tumor sizes of mice vaccinated with CPQ admixed with indicated peptide 18 days post tumor inoculation. Splenocytes were prepared 18 days post tumor inoculation and cultured in vitro for 5 days then stimulated with antigens and served as Effector cells (E), tumor cells were target cells (T). Effector cells were incubated with target cells for 5 hours, then specific lysis was analyzed by the nonradioactive LDH release assay by following the manufacturer's instructions. Percent cell lysis of RENCA cells (B) and percent cell lysis of irrelevant TC-1 cells (C). Error bars show mean+/−std. dev. for n=5 independent experiments.
For Cytotoxic T lymphocyte (CTL) cytotoxicity assay, isolated splenocytes were cultured in the cell culture medium and stimulated by mouse IL-2 (Pepro tech; catalog: 212-12; 10 IU/mL) and antigens (10 μg/mL) for 5 days to use as the effector cells. 5000 CT26 cells were seeded in a 96 wells plate and pulsed with 10 μg/mL antigens for 1 hour, then splenocytes were added to the plate at different E:T ratios for 5 hours. The cytotoxicity of splenocytes on tumor cells was assessed by lactate dehydrogenase (LDH) release using Non-Radioactive Cytotoxicity Assay Kit (Promega; catalog: G1780) according to manufacturer instructions.

[4] = test system: RAW264.7 murine macrophage cells; assay: In vitro cell uptake of A5-HiLyte488, macrophages; assay type: cell-based, mouse; details: cells pre-incubated with inhibitor 10 μg/mL for an hour, CPQ/A5
Description: For in vitro cell uptake studies, RAW264.7 cells (2.5×10^5 per well) and BMDCs (2.5×10^5 per well) were cultured in a 24-well plates overnight, then treated with CPQ/A5-HiLyte488, 2HPQ/A5-HiLyte488 and PBS/A5-HiLyte488 (peptide concentration of 1 μg/mL) for 10 min, 30 min or an hour. For phagocytosis and endocytosis inhibitor study, cells were first pre-incubated with cytochalasin B (10 μg/ml) or chlorpromazine (10 μg/mL) for an hour before the cell uptake study. Cells were washed and lysed with 0.1% Triton X-100 and 10 mM dithiothreitol (DTT). The fluorescence signals were measured before and after adding DTT. Cellular A5-HiLyte488 uptakes were calculated by preparing an A5-HiLyte488 standard curve.

[5] = test system: IFN-γ producing CD8^+ T cells; assay: Intracellular IFN-γ in CD8+ T cells of re-stimulated PBMCs; assay type: in vivo, C57BL/6 mice; details: multivalent E6/E7 vaccine, 100 ng each peptide
Description: The E6 and E7 genes of TC-1 cells were sequenced from extracted DNA using Sanger sequencing. Six predicted H-2K^b- and H-2D^b-restricted epitopes within the top percentile of MHC-I binders were identified using a neural network simulation algorithm. […] These 6 peptides were combined with CPQ to form a single multivalent vaccine for mice and the immunogenicity of each peptide were assessed by Interferon gamma (IFN-γ production after individual peptide stimulation of collected peripheral blood mononuclear cells (PBMCs). Mice were then challenged with TC-1 cells subcutaneously to assess the tumor protection of the vaccine (FIG. 21A).
Collected PBMCs were re-stimulated with the epitope candidates that comprised the multivalent vaccine after which CD8^+ T cells were assessed for intracellular IFN-γ production, indicating the induction of Ag-specific CD8^+ T cells. […] When PBMCs from mice injected with the non-particle forming 2HPQ/peptides were re-stimulated with the peptides, none induced IFN-γ producing CD8^+ T cells (FIG. 21E).

CT26 cells = assay: Experimental lung metastasis tumor model, CT26; assay type: in vivo, BALB/c mice; details: 1000 ng (total) peptides with CPQ, 1 and 8 days after i.v. CT26
Description: Tumor challenge: For the prophylactic vaccine tumor model, mice were vaccinated on day 0 and 7, and challenged on day 14. For testing the long-term protection of vaccine, mice were challenged on day 80. For the therapeutic vaccine tumor model, mice were inoculated with tumor cells subcutaneously on day 0, and then vaccinated with indicated vaccine on days 5 and 12. Tumor growth was monitored three times a week and tumor sizes were calculated by equation: Tumor volume=length×width^2/2. Animals were euthanized when the tumor sizes reached 1 cm in diameter or when animals developed an ulceration. For the experimental lung metastasis tumor model, animals were injected intravenously via tail vein with tumor cells on day 0, then were left untreated or treated with intramuscular injection with the indicated vaccines on day 2 and 9 for the A5 vaccine studies or day 1 and 8 for the RragcL385P, Tmem5S71N or EML5G44R peptide screening studies. Lungs were excised and stained with Bouin's solution (Sigma Catalog: HT10132) on day 18 for mice injected with CT26 cells and on day 16 for mice injected with 4T1 cells. Tumor nodules were counted manually and lung weights were measured.

IFN-γ = assay: In vivo peptide micro-library screening, IFN-γ ELISA of re-stimulated splenocytes relative to A5; set-up: species or system mice; details: rank among 100 micro-library peptides; IFN-γ on re-stimulation relative to A5; 5 peptides plus A5 with CPQ
Description: Mice were immunized with 5 library peptides at a time, along with the A5 peptide, with all peptides combined and admixed with CPQ. After two intramuscular injections, splenocytes were collected, and then re-stimulated with each of the synthetic micro-library peptides, individually. Production of IFN-γ was measured and peptide immunogenicity was determined relative to the A5 peptide, which served as in internal control that could induce strong Ag-specific CD8^+ T cell responses.
For Ag screening, multivalent vaccine composed of peptide with the same MHC-I haplotypes (H-2L^d, H-2D^d, or H-2K^d) and the internal A5 peptide were admixed with CPQ. After immunization, only ˜10% of MHC-I binding peptides induced T cells in splenocytes that produced IFN-γ with peptide re-stimulation, and none were nearly as effective as A5 (FIG. 16B). The most highly immunogenic peptides only produced about a quarter of the level of IFN-γ relative to A5. […] It is also feasible that immunization with higher antigen doses of single individual peptides could have induced stronger immunogenic responses, although this would decrease the in vivo peptide micro-library screening throughput.
IFN-γ ELISA: 2.5×10^5 splenocytes were seeded in a 96 wells plate and stimulated with 10 μg/mL antigens for 72 hr. 50 μL of supernatant was collected from each well and subjected to Interferon gamma ELISA (Thermofisher; catalog: BMS606TEN) according to manufacturer protocol.

TC-1 cells = assay: Prophylactic vaccine tumor model, subcutaneous TC-1 challenge; assay type: in vivo, C57BL/6 mice; details: days 0 and 7, challenge day 14
Description: To determine immunogenicity, C57BL/6 mice were then vaccinated intramuscularly with the multivalent vaccine on days 0 & 7, and peripheral blood mononuclear cells (PBMCs) were collected and mice challenged with TC-1 tumor cells on day 14. […] Thus, the presentation of the peptides in the form of a particle, even with identical amounts of QS-21 and MPLA, appeared to be important for inducing memory CD8^+ T cells.
Next, to determine which of the peptide epitopes provided anti-tumor activity, peptides were admixed individually with CPQ or 2HIPQ liposomes (FIG. 22A). Individually, all of the peptides effectively bound to CPQ liposomes, but not to 2HIPQ liposomes lacking cobalt (FIG. 22B). Liposome size remained ˜100 nm after binding with E6 and E7 peptides (FIG. 22C). Next, mice were vaccinated with the peptides admixed with CPQ on days 0 & 7 at a peptide dose of 500 ng. Each mouse was then challenged with TC-1 cells on day 14. […]
as §1, with “14.” for “14. For testing the long-term protection of vaccine, mice were challenged on day 80.”

Compound: 3His-AYTTQREEL (HHHAYTTQREEL; N-terminal 3His tag; Renca_2)
- IFN-γ producing CD8^+ T cells in the spleen after stimulation with individual peptide [1]: around 2%
- Tumor growth, single peptide vaccine (RENCA cells [2]): inhibited tumor growth
- Lysis of RENCA cells by T cells of vaccinated mice (RENCA cells [3]): induced functional T cells that specific targets to RENCA cells

Compound: CN(C)CCCN1c2ccccc2Sc2ccc(Cl)cc21 [chlorpromazine, Chlorpromazine hydrochloride]
- A5 peptide uptake by macrophages in the presence of inhibitor [4]: significantly less

Compound: C=C1[C@@H](C)[C@H]2[C@H](Cc3ccccc3)NC(=O)[C@]23OC(=O)/C=C/[C@H](O)CCC[C@@H](C)C/C=C/[C@H]3[C@@H]1O [cytochalasin B]
- A5 peptide uptake by macrophages in the presence of inhibitor [4]: significantly less

Compound: H3-TLHEYMLDL (HHHTLHEYMLDL; H3 N-terminal flank; E76-14)
- IFN-γ producing cells of CD8+ T cells over background after peptide re-stimulation of PBMCs [5]: higher percentage

Compound: H3-STHVDIRTL (HHHSTHVDIRTL; H3 N-terminal flank; E771-79)
- IFN-γ producing cells of CD8+ T cells over background after peptide re-stimulation of PBMCs [5]: higher percentage

Compound: 3His-GYHESGHAI (HHHGYHESGHAI; N-terminal 3His tag; Renca_8)
- IFN-γ producing CD8^+ T cells in the spleen after stimulation with individual peptide [1]: ~5%

Compound: Eml5G44R: 9-mer neoantigen peptide; tagged forms CT71 and 3his-CT71 (VYFVAGVRV)
- Lung nodules (CT26 cells): no significant difference

Compound: Tmem5S71N: 9-mer neoantigen peptide; tagged forms CT96 and 3his-CT96 (VVEANWTML) (HHHVVEANWTML; N-terminal 3His tag; 3his-CT96/Tmem5S71N)
- Lung nodules (CT26 cells): no significant difference

Compound: H6-SSKHRRSFV-ERR (HHHHHHSSKHRRSFVERR; CT38*)
- Experimental rank (IFN-γ): 45

Compound: H6-GYEAVVRLL-ERR (HHHHHHGYEAVVRLLERR; CT23)
- Experimental rank (IFN-γ): 77

Compound: H6-KGPKRDEQC-ERR (HHHHHHKGPKRDEQCERR; CT2)
- Experimental rank (IFN-γ): 65

Compound: H3-RAHYNIVTF (HHHRAHYNIVTF; H3 N-terminal flank; E749-57)
- IFN-γ producing cells of CD8+ T cells over background after peptide re-stimulation of PBMCs [5]: higher percentage
- Tumor-free survival maintained (TC-1 cells; 500 ng peptide with CPQ): at least 60 days
- Tumor growth after TC-1 challenge, single peptide with CPQ (TC-1 cells; 500 ng peptide): inhibited tumor growth

Compound: H6-EPQVEPLDF-ERR (HHHHHHEPQVEPLDFERR; CT15)
- Experimental rank (IFN-γ): 81

Compound: H6-IGQMLQTHF-ERR (HHHHHHIGQMLQTHFERR; CT84)
- Experimental rank (IFN-γ): 49
